Assay results published in patent US20240391954A1, “MC4R AGONIST PEPTIDES” (The Regents of the University of Michigan, priority 2021, published 2024).
Where two headings read alike, the source gives them in different places. Positions of bridges follow the written chain, without caps; N, C: chain ends. Non-standard residues stand in square brackets, D forms with d. Residues, ends and D or L forms follow the SMILES beside them. dDip = N[C@@H](C(=O)O)C(c1ccccc1)c1ccccc1; dPhe(4-Br) = N[C@H](Cc1ccc(Br)cc1)C(=O)O; d2Nal = N[C@H](Cc1ccc2ccccc2c1)C(=O)O; d(hPhe) = N[C@H](CCc1ccccc1)C(=O)O; NMeR = CN[C@@H](CCCNC(=N)N)C(=O)O; Tic = O=C(O)[C@@H]1Cc2ccccc2CN1; dTic = O=C(O)[C@H]1Cc2ccccc2CN1; Cit = NC(=O)NCCC[C@H](N)C(=O)O; Nle = CCCC[C@H](N)C(=O)O; Aib = CC(C)(N)C(=O)O

What was measured:
[1] = biological target: T1, human MC3R (Homo sapiens, UniProt P41968); assay: split-luciferase cAMP sensor assay, agonist mode (measurement window 1), hMC3R; assay type: cell-based; settings: agonist mode; for Emax: read-out: MC3R cAMP % max activation; for EC50: read-out: MC3R cAMP EC50
T1 construct: expressed in transfected cells; host or cells: HEK-293 cells stably expressing the GScAMP22F split-luciferase cAMP sensor (parent reporter line from Promega); MC3R clone generated in-house, G418 selection
T1 sequence (P41968 whole entry): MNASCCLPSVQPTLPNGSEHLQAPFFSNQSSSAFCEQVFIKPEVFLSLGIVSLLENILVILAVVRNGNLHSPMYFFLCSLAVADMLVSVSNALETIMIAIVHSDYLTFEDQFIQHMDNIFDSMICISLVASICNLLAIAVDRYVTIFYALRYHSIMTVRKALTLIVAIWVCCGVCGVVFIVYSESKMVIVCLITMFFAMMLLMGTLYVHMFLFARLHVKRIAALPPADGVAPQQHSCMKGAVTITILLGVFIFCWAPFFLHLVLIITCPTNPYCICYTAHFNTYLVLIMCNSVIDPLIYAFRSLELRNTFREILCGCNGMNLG
Procedure, shortened: (§1)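 EC50 values come from a four-parameter variable-slope fit of luminescence in measurement window 1, capturing direct peptide effects on receptor-expressing cells with a cAMP22f luciferase sensor. Cells were preloaded with 4% D-luciferin, serum-free medium; 20 μM forskolin normalized for cell number and transducer efficiency.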

[2] = biological target: T2, human MC4R (Homo sapiens, UniProt P32245); assay: split-luciferase cAMP sensor assay, agonist mode (measurement window 1), hMC4R; assay type: cell-based; settings: for Emax / EC50: agonist mode; for Emax: read-out: MC4R cAMP % max activation; for EC50: read-out: MC4R cAMP EC50
T2 construct: host or cells: HEK-293 cells stably expressing the GScAMP22F split-luciferase cAMP sensor and hMC4R, G418 selection
T2 sequence (P32245 whole entry): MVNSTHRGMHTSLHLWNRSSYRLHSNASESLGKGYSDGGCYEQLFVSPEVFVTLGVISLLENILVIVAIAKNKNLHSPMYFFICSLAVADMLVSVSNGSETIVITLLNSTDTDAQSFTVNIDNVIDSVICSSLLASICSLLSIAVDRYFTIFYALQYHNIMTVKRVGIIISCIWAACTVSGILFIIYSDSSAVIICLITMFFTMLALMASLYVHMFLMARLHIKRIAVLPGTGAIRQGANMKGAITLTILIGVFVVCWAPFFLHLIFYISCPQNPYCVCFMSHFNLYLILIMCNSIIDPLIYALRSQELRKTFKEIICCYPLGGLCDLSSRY
Procedure, shortened: as §1

SMILES	Emax ([1]; hMC3R stable cell line) [%]	MC4R selectivity vs MC1R [2]	MC4R selectivity vs MC3R [2]	Emax ([2]; hMC4R stable cell line) [%]	Emax ([1]; % maximal activation) [%]	Emax ([2]; % maximal activation) [%]	EC50 ([1]; hMC3R stable cell line) [nM]	EC50 ([2]; hMC4R stable cell line) [nM]
CC(=O)N[C@@H](CCCNC(=N)N)C(=O)N[C@H]1CSSC[C@@H](C(N)=O)NC(=O)[C@@H](Cc2c[nH]c3ccccc23)NC(=O)[C@H](CCCNC(=N)N)NC(=O)[C@H]2Cc3ccccc3CN2C(=O)[C@H](CCCNC(=N)N)NC(=O)[C@@H](C)NC1=O [CTX-1273, Arg-cyclo(Cys-D-Ala-Arg-D-Tic-Arg-D-Trp-Cys)] (Ac-RC[dA]R[dTic]R[dW]C-NH2; disulfide 2-8)	3.7	0.05	0.64	32				
CC(=O)N[C@@H](CCCNC(=N)N)C(=O)N[C@H]1CSSC[C@@H](C(N)=O)NC(=O)[C@@H](Cc2c[nH]c3ccccc23)NC(=O)[C@H](CCCNC(=N)N)NC(=O)[C@@H](Cc2ccccc2)NC(=O)[C@H](Cc2c[nH]cn2)NC(=O)[C@@H](C)NC1=O [CTX-1262, Arg-cyclo(Cys-D-Ala-His-D-Phe-Arg-D-Trp-Cys)]					65	88		
CC(=O)N[C@@H](CCCNC(=N)N)C(=O)N[C@H]1CSSC[C@@H](C(=O)N[C@@H](CCCCN)C(=O)N2CCC[C@H]2C(N)=O)NC(=O)[C@@H](Cc2c[nH]c3ccccc23)NC(=O)[C@H](CCCNC(=N)N)NC(=O)[C@@H](Cc2ccc(Br)cc2)NC(=O)[C@H](CCCNC(=N)N)NC(=O)[C@@H](C)NC1=O [CTX-1217, Arg-cyclo(Cys-D-Ala-Arg-D-Phe(4-Br)-Arg-D-Trp-Cys)-Lys-Pro] (Ac-RC[dA]R[dPhe(4-Br)]R[dW]CKP-NH2; disulfide 2-8)	13	1.12	2.73	69			4	
CC(=O)N[C@@H](CCCNC(=N)N)C(=O)N[C@H]1CSSC[C@@H](C(N)=O)NC(=O)[C@@H](Cc2c[nH]c3ccccc23)NC(=O)[C@H](CCCNC(N)=O)NC(=O)[C@@H](Cc2ccccc2)NC(=O)[C@H](CCCNC(=N)N)NC(=O)C(C)(C)NC1=O [CTX-1271, Arg-cyclo(Cys-Aib-Arg-D-Phe-Cit-D-Trp-Cys)] (Ac-RC[Aib]R[dF][Cit][dW]C-NH2; disulfide 2-8 (inferred))	16	2.9	1.63	95				72
CC(=O)N[C@@H](CCCNC(=N)N)C(=O)N[C@H]1CSSC[C@@H](C(N)=O)NC(=O)[C@@H](Cc2c[nH]c3ccccc23)NC(=O)[C@H](CCCNC(=N)N)NC(=O)[C@@H](C(c2ccccc2)c2ccccc2)NC(=O)[C@H](CCCNC(=N)N)NC(=O)[C@@H](C)NC1=O [CTX-1280, Arg-cyclo(Cys-D-Ala-Arg-D-Dip-Arg-D-Trp-Cys)] (Ac-RC[dA]R[dDip]R[dW]C-NH2; disulfide 2-8 (inferred))	2.6	0.1	1.24	4				
CC(=O)N[C@@H](CCCNC(=N)N)C(=O)N[C@H]1CSSC[C@@H](C(N)=O)NC(=O)[C@@H](Cc2c[nH]c3ccccc23)NC(=O)[C@H](CCCNC(=N)N)NC(=O)[C@@H](Cc2ccc(Br)cc2)NC(=O)[C@H](CCCNC(=N)N)N(C)C(=O)[C@@H](C)NC1=O [CTX-1248, Arg-cyclo(Cys-D-Ala-NMe-Arg-D-Phe(4-Br)-Arg-D-Trp-Cys)] (Ac-RC[dA][NMeR][dPhe(4-Br)]R[dW]C-NH2; disulfide 2-8 (inferred))	18	1.31	1.36	47			2.8	2
CC(=O)N[C@@H](CCCNC(=N)N)C(=O)N[C@H]1CSSC[C@@H](C(N)=O)NC(=O)[C@@H](Cc2c[nH]c3ccccc23)NC(=O)[C@@H](CCCNC(=N)N)NC(=O)[C@@H](Cc2ccccc2)NC(=O)[C@H](CCCNC(=N)N)NC(=O)[C@@H](C)NC1=O [CTX-1283, Arg-cyclo(Cys-D-Ala-Arg-D-Phe-D-Arg-D-Trp-Cys)] (Ac-RC[dA]R[dF][dR][dW]C-NH2; disulfide 2-8)	7.8	0.03	0.12	55				
CCCC[C@H](NC(=O)[C@H](CCCNC(=N)N)NC(C)=O)C(=O)N[C@H]1CSSC[C@@H](C(N)=O)NC(=O)[C@H](Cc2c[nH]c3ccccc23)NC(=O)[C@H](CCCNC(=N)N)NC(=O)[C@@H](Cc2ccc(OC)cc2)NC(=O)[C@H](CCCNC(=N)N)NC1=O [CTX-1614, Arg-Nle-cyclo(Cys-Arg-D-Tyr(4-OMe)-Arg-Trp-Cys)] (Ac-R[Nle]CR[dY](Me)RWC-NH2; disulfide 3-8 (inferred))	28	0.08	1.89	41				1.7
CC(=O)N[C@@H](CCCNC(=N)N)C(=O)N[C@H]1CSSC[C@@H](C(=O)N[C@@H](CCCCN)C(=O)N2CCC[C@H]2C(=O)N[C@H](C(N)=O)C(C)C)NC(=O)[C@@H](Cc2c[nH]c3ccccc23)NC(=O)[C@H](CCCNC(=N)N)NC(=O)[C@@H](Cc2ccc(Br)cc2)NC(=O)[C@H](CCCNC(=N)N)NC(=O)[C@@H](C)NC1=O [CTX-1216, Arg-cyclo(Cys-D-Ala-Arg-D-Phe(4-Br)-Arg-D-Trp-Cys)-Lys-Pro-Val] (Ac-RC[dA]R[dPhe(4-Br)]R[dW]CKPV-NH2; disulfide 2-8 (inferred))	11	0.82	1.99	69			3.5	1.8
CC(=O)N[C@@H](CCCNC(=N)N)C(=O)N[C@H]1CSSC[C@@H](C(N)=O)NC(=O)[C@@H](Cc2c[nH]c3ccccc23)NC(=O)[C@H](CCCNC(=N)N)NC(=O)[C@@H](CCc2ccccc2)NC(=O)[C@H](CCCNC(=N)N)NC(=O)[C@@H](C)NC1=O [CTX-1277, Arg-cyclo(Cys-D-Ala-Arg-D-Hph-Arg-D-Trp-Cys)] (Ac-RC[dA]R[d(hPhe)]R[dW]C-NH2; disulfide 2-8 (inferred))	5.2	0.05	0.1	29				
CC(=O)N[C@@H](CCCNC(=N)N)C(=O)N[C@H]1CSSC[C@@H](C(N)=O)NC(=O)[C@@H](Cc2c[nH]c3ccccc23)NC(=O)[C@H](CCCNC(=N)N)N(C)C(=O)[C@@H](Cc2ccc(Br)cc2)NC(=O)[C@H](CCCNC(=N)N)NC(=O)[C@@H](C)NC1=O [CTX-1251, Arg-cyclo(Cys-D-Ala-Arg-D-Phe(4-Br)-NMe-Arg-D-Trp-Cys)] (Ac-RC[dA]R[dPhe(4-Br)][NMeR][dW]C-NH2; disulfide 2-8)	30	0.11	3.73	31				
CC(=O)N[C@@H](CCCNC(=N)N)C(=O)N[C@H]1CSSC[C@@H](C(N)=O)NC(=O)[C@@H]2Cc3ccccc3CN2C(=O)[C@H](CCCNC(=N)N)NC(=O)[C@@H](Cc2ccc(Br)cc2)NC(=O)[C@H](CCCNC(=N)N)NC(=O)[C@@H](C)NC1=O [CTX-1259, Arg-cyclo(Cys-D-Ala-Arg-D-Phe(4-Br)-Arg-Tic-Cys)] (Ac-RC[dA]R[dPhe(4-Br)]R[Tic]C-NH2; disulfide 2-8 (inferred))	27	0.01	0.12	70				
CC(=O)N[C@@H](CCCNC(=N)N)C(=O)N[C@H]1CSSC[C@@H](C(N)=O)NC(=O)[C@H](Cc2c[nH]c3ccccc23)NC(=O)[C@H](CCCNC(=N)N)NC(=O)[C@@H](Cc2ccc3ccccc3c2)NC(=O)[C@@H]2CCCN2C(=O)[C@@H](C)NC1=O [CTX-2203] (Ac-RC[dA]P[d2Nal]RWC-NH2; disulfide 2-8 (inferred))	1		2.45	1.4			29	12
